Some results are limits rather than exact numbers.

Drawing on EP0129461B1, “Derivatives of isoindoledicarboxylic acids, their preparation and pharmaceutical compositions thereof” (ADIR, priority 1983, dated 1984), this text covers DE50 for four compounds.

For the experiment, the system named is angiotensine convertase. The experiment can be described thus: Inhibition of circulating angiotensin convertase in the anaesthetised rat (protocol of D.M. Gross et al.), i.v. dosing. Type of experiment: in vivo. To be noted: I.V. dose inhibiting 50% of the activity of the angiotensine convertase present in the circulation. From the text:
Les composés de l'invention ont été soumis à une étude pharmacologique chez le rat anesthésié selon le protocole décrit par D.M. GROSS et coll. [J. Phar- macol. and Exp. Ther. 216, 552-557, 1981 )].
La dose I.V. capable d'inhiber 50% de l'activité de l'angiotensine convertase présente dans la circulation (DE50) a été déterminée.
Turning to `CCC[C@H](N[C@@H](C)C(=O)N1CC2CCCCC2[C@H]1C(=O)O)C(=O)OCC` (stereo partly drawn) [III, [N-<(S)-éthoxycarbonyl-1 butyl)-(S) alanyl]-2 (S)-carboxy-1 perhydroisoindole, maléate], the DE50 is 0,020 mg/kg.

Compound `CCC[C@H](N[C@@H](C)C(=O)N1CC2CCCCC2[C@@H]1C(=O)O)C(=O)OCC` (stereo partly drawn) [Exemple IV, [N-<(S)-éthoxycarbonyl-1 butyl>-(S)alanyl]-2 (R)-carboxy-1 perhydroisoindole] returned a DE50 of over 300 mg/kg.

For the compound `CCC[C@H](N[C@@H](C)C(=O)N1Cc2ccccc2[C@H]1C(=O)O)C(=O)OCC` [Exemple I], the DE50 is recorded as 0,022 mg/kg.

`CCC[C@H](N[C@@H](C)C(=O)N1Cc2ccccc2[C@@H]1C(=O)O)C(=O)OCC` [II, (N-((S)-éthoxycarbonyl-1 butyl)-(S)alanyl]-2 (R)-carboxy-1 isoindoline]: the DE50 is listed as 0,170 mg/kg.
